We go through 14 compounds from patent US5082943A, “Novel imidazole derivatives” (Nippon Chemiphar Co., Ltd., priority 1988, dated 1992).

The subject of data set [1] is secretion of gastric acid. In words: Inhibitory action against the secretion of gastric acid (Test II), Heidenhain pouch dogs, histamine stimulated. It counts as in vivo, male beagle dogs. To be noted: Canis lupus familiaris, Heidenhain pouch dog, histamine 160 ug/kg/hr, intravenous, read-out: Suppresive action on secretion of gastric acid (%). Here is the method:
Heidenhain pouch dogs produced from male beagle dogs were fasted. To the dogs were then administered intarvenously histamine hydrochloride (gastric juice secretion inducing agent) continuously at a dose of 160 ug/kg/hr. The gastric juice was collected at an interval of 15 min. to measure the amount of gastric juice and acid output to determine an acid secretion amount (mEq/15 min).
The test compound was intravenously administered to the dogs at one hour after the initiation of histamine administration.
The inhibitory action was determined by comparing the acid secretion amount, with the corresponding amount of a control dog prepared in the same manner except that a vehicle alone was administered.

The target of data set [2] is T1, H^+ +K^+ ATPase (Sus scrofa, UniProt P19156).
T1 construct: Gastric acid secretory cells of a pig gastric mucosa were isolated; from tissue; host or cells: pig gastric mucosa, vesicles from gastric acid secretory cells (Ficoll density gradient)
The data set is described as follows: H+ + K+ ATPase inhibitory effects (b) pig gastric mucosa. Format: biochemical. Particulars: pig gastric mucosa vesicle; incubated 37° C., 30 min, pH 5.5; read-out: H+ + K+ ATPase inhibitory action (IC50). The protocol: Gastric acid secretory cells of a pig gastric mucosa were isolated in the same manner as in the test for rabbit gastric mucosa. A vesicle containing H^+ +K^+ ATPase was prepared by centrifuging the cells in Ficoll of discontinuous density gradient. The enzyme and each test compound were incubated at 37° C. for 30 min. in a solution which contained 2 mM of a bisTRIS-acetate buffer (pH 5.5). To the resulting mixture were added a solution of 37.5 mM of bisTRIS-acetate buffer solution (pH 7.4), 2 mM of magnesium chloride, 2 mM of ATP and 5 mM of potassium chloride, and the mixture was then heated to 37° C. for 10 min. for performing a reaction. The reaction was terminated by addition of 5% trichloroacetic acid solution, and an inorganic phosphorus liberated was quantitatively measured by Fiske-Subbarow method. The ATPase activity was determined from the obtained inorganic phosphorus value.
(§1) The above procedure was repeated except for not using potassium chloride to determine an ATPase activity in the absence of potassium chloride.
The desired […] ATPase activity was calculated by subtracting the ATPase activity value determined in the absence of KCl from the ATPase activity value determined in the presence of KCl.

The target of data set [3] is T2, H^+ +K^+ ATPase (Oryctolagus cuniculus, UniProt P27112).
T2 construct: gastric acid secretory cells of a rabbit gastric mucosa were isolated; from tissue; host or cells: rabbit gastric mucosa, vesicles from gastric acid secretory cells (Ficoll density gradient)
In words: H+ + K+ ATPase inhibitory effects (a) rabbit gastric mucosa. It counts as biochemical. To be noted: rabbit gastric mucosa vesicle; 2×10^-4 M test compound, pH 6.0, 25 min preincubation; read-out: H+ + K+ ATPase inhibitory action (%). Here is the method: Following the method of Forte et al (J. Applied Physiol., 32, 714-717 (1972)), gastric acid secretory cells of a rabbit gastric mucosa were isolated. A vesicle containing H^+ +K^+ ATPase was prepared by centrifuging the cells in Ficoll of discontinuous density gradient. After the enzyme was incubated at room temperature for 25 min. in 0.5 ml of a solution which contained 5 mM of an imidazole buffer (pH 6.0) and 2×10^-4 M of each test compound, the mixture was heated to 37° C. The mixture was then allowed to stand for further 5 min. To the mixture was added 0.5 ml of a solution which contained 4 mM of magnesium chloride, 80 mM of an imidazole buffer (pH 7.4), 20 mM of potassium chloride and 4 mM of ATP. The resulting mixture was reacted at 37° C. for 15 min. and 1 ml of a 24% trichloroacetic acid was then added to terminate the reaction. The inorganic phosphorus liberated was quantitatively determined by the method proposed by Taussky and Shorr (J. Biol. Chem., 202, […] (1953)). The ATPase activity was determined from the obtained inorganic phosphorus value.
as §1
The desired K^+ -dependent ATPase activity was calculated by subtracting the ATPase activity value determined in the absence of KCl from the ATPase activity value determined in the presence of KC1.

The test system of data set [4] is secretion of gastric acid. In words: Inhibitory action against the secretion of gastric acid (Test I), pylorus ligated rats. It counts as in vivo, Male Donryu rats. Particulars: rat, pylorus ligation, intraduodenal, 4 hours, acid output vs control. The protocol:
Male Donryu rats having a body weight of 200 to 250 g were fasted (while allowing free access to water) for 24 hrs. in accordance with the conventional method [Shay, H. et al, Gastroenterology, 5, 43-61 (1945)]. Under ether anesthesia the pylorus was ligated and each test compound was administered intraduodenally. Four hours later, each rat was killed and the stomach was removed to collect the gastric juice. The inhibitory action was determined by comparing the acid output which was determined by titration to pH 7.0 with 0.1-N NaOH by means of an automatic titrator, with the corresponding value of control rat prepared in the same manner except that a vehicle alone was administered.

The test system of a further data set is rats. The data set is described as follows: Acute toxicity test, rats. Format: in vivo. To be noted: oral, 45 mg/kg/day for two weeks. The protocol: (§2) 2-[(2-Isobutylamino)benzylsulfinyl]imidazole (Example No. 10) was orally administered to rats and beagle dogs at a dose of 45 mg/kg/day for two weeks.
A further data set deals with beagle dogs. In words: Acute toxicity test, beagle dogs. It counts as in vivo. Particulars: oral, 45 mg/kg/day for two weeks. The protocol: as §2

T2 sequence (P27112 2-1035 limits assumed): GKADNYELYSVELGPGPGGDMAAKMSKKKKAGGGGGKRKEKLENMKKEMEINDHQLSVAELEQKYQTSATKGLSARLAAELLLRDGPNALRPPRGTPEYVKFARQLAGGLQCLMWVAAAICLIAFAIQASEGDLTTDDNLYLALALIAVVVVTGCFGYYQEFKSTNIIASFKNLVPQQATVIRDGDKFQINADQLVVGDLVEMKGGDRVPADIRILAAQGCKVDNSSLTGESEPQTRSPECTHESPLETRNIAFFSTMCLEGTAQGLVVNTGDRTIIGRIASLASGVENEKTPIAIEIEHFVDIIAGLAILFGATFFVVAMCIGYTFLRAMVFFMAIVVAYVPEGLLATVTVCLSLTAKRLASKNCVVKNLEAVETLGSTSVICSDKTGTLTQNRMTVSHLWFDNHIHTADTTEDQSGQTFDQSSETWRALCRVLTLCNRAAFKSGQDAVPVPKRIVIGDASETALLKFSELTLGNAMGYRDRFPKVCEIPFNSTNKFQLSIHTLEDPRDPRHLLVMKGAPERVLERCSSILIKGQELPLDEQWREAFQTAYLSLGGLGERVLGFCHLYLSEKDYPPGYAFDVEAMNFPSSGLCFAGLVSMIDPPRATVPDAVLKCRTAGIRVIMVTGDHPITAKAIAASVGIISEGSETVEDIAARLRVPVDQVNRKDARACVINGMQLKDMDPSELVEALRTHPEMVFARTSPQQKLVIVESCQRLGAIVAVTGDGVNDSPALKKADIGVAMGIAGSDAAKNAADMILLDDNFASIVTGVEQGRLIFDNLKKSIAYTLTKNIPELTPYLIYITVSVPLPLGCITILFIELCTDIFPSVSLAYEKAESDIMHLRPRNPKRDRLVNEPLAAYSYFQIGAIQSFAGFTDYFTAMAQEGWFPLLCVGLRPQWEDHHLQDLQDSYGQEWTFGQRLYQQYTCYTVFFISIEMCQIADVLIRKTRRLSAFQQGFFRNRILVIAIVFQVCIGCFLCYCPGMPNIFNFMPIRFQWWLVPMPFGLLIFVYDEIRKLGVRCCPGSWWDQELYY
T2 sequence (P18597 whole entry partner): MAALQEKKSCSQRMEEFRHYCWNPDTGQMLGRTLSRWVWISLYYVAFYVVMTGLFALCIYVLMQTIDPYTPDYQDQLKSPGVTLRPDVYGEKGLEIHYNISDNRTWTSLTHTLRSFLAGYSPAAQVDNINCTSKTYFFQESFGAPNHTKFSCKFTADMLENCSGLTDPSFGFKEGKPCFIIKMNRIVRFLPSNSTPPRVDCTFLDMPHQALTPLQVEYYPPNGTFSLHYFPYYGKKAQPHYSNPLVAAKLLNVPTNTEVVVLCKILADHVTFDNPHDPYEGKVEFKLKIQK
T1 sequence (P19156 2-1034 limits assumed): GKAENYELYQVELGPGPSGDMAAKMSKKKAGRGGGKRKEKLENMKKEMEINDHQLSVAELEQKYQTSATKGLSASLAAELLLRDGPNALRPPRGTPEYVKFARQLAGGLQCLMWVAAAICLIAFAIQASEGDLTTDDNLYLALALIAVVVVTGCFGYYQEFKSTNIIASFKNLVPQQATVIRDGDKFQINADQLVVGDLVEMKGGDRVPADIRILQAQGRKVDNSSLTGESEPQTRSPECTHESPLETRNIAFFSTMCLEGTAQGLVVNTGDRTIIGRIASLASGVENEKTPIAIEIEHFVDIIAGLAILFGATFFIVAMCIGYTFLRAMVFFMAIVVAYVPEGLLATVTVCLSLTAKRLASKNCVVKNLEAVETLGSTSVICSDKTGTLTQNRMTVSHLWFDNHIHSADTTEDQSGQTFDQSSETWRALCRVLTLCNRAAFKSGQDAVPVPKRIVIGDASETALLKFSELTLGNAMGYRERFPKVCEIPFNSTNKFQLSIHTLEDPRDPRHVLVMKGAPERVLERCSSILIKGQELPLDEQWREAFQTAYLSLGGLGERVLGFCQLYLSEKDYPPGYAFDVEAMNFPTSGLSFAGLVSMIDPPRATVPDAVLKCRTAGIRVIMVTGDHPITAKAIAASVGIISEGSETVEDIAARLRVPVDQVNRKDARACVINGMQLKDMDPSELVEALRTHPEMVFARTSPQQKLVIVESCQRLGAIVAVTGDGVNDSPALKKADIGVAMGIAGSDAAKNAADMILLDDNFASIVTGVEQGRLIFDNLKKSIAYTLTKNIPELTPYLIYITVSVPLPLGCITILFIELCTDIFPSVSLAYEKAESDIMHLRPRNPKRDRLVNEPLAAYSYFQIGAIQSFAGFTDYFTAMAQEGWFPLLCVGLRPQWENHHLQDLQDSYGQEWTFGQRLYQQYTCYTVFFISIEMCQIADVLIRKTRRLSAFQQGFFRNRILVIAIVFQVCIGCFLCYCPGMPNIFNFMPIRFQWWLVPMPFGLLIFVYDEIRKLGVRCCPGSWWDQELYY
T1 sequence (P18434 whole entry partner): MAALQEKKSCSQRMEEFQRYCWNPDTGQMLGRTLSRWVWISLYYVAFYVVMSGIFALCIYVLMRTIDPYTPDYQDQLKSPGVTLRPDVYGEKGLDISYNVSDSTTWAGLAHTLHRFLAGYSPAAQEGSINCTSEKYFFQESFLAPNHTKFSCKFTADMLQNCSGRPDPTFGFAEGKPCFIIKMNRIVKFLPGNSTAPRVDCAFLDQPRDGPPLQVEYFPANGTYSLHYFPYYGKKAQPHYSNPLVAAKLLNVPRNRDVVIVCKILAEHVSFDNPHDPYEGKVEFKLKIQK

In the case of `COc1cccc(NCC(C)C)c1C[S+]([O-])c1ncc[nH]1` (stereo not shown) [Example No. 41, 2-[(2-isobutylamino-6-methoxy)benzylsulfinyl]imidazole], in data set [1], the inhibition in vivo at 1 mg/kg was determined as 66% and the inhibition in vivo at 3 mg/kg was 97%.

In the case of `CNc1ccccc1C[S+]([O-])c1ncc[nH]1` (stereo not shown) [Example No. 8, 2-(2-methylaminobenzylsulfinyl)imidazole], the 50% inhibitory concentration (IC50) (as a rule, the concentration that gives 50% inhibition) on H^+ +K^+ ATPase [2] is 2800 nM.

As for `CCNc1ccccc1C[S+]([O-])c1ncc[nH]1` (stereo not shown) [Example No. 25, 2-[(2-ethylamino)benzylsulfinyl]imidazole], on H^+ +K^+ ATPase [3], the inhibition at 200 µM turned out to be 87.5%. Also, the “Suppresive action on secretion of gastric acid (%)” value (“Suppresive action … (%)” below) in data set [4] (10 mg/kg) came to 74.0%; in data set [4] (30 mg/kg), 93.3%. For the same compound, in data set [1], the inhibition in vivo at 3 mg/kg stood at 80%.

For `Cc1ccc(C[S+]([O-])c2ncc[nH]2)c(NCC(C)C)c1` (stereo not shown) [Example No. 47, 2-[(2-isobutylamino-4-methyl)benzylsulfinyl]imidazole], the inhibition in vivo at 1 mg/kg in data set [1] came to 87%.

Consider `CNc1ccc(C)cc1C[S+]([O-])c1ncc[nH]1` (stereo not shown) [Example No. 14, 2-[(5-methyl-2-methylamino)benzylsulfinyl]imidazole], for which the inhibition at 200 µM on H^+ +K^+ ATPase [3] was 90.8%. Also, the “Suppresive action … (%)” value in data set [4] (10 mg/kg) came to 82.2%; in data set [4] (30 mg/kg) it was 98.6%. Also, the inhibition in vivo at 3 mg/kg in data set [1] worked out at 97%.

As to `CNc1ccccc1C[S+]([O-])c1nc(C)c[nH]1` (stereo not shown) [Example No. 37, 4-methyl-2-[(2-methylamino)benzylsulfinyl]imidazole], the inhibition in vivo at 3 mg/kg in data set [1] stood at 50%.

As to `CNc1cccc(C)c1C[S+]([O-])c1ncc[nH]1` (stereo not shown) [Example No. 33, 2-[(2-methyl-6-methylamino)benzylsulfinyl]imidazole], the “Suppresive action … (%)” value in data set [4] (10 mg/kg) worked out at 92.9%; in data set [4] (30 mg/kg) it was 91.4%. In data set [1], the inhibition in vivo at 1 mg/kg was 70%.

Take `[O-][S+](Cc1ccccc1NCc1ccccc1)c1ncc[nH]1` (stereo not shown) [Example No. 27, 2-[(2-benzylamino)benzylsulfinyl]imidazole]: the inhibition in vivo at 3 mg/kg in data set [1] is 57%.

As to `COc1ccc(NCC(C)C)c(C[S+]([O-])c2ncc[nH]2)c1` (stereo not shown) [Example No. 29, 2-[(2-isobutylamino-5-methoxy)benzylsulfinyl]imidazole], the “Suppresive action … (%)” value in data set [4] (10 mg/kg) amounted to 30.8%; in data set [4] (30 mg/kg), 89.0%. In addition, the inhibition in vivo at 1 mg/kg in data set [1] stood at 30%. In data set [1], the inhibition in vivo at 3 mg/kg worked out at 81%.

Consider `CC(C)CNc1ccccc1CSc1ncc[nH]1` [Example No. 9, 2-[(2-isobutylamino)benzylthio]imidazole], for which the inhibition in vivo at 3 mg/kg in data set [1] was 11%.

On to `CC(C)CNc1ccccc1C[S+]([O-])c1ncc[nH]1` (stereo not shown) [Example No. 10, 2-[(2-isobutylamino)benzylsulfinyl]imidazole], for which the inhibition at 200 µM at H^+ +K^+ ATPase [3] turned out to be 97.2%. Also, the “Suppresive action … (%)” value is listed as 56.2% in data set [4] (10 mg/kg) and 87.0% in data set [4] (30 mg/kg). In addition, in data set [1], the inhibition in vivo at 3 mg/kg stood at 81%. In addition, the “Acute toxicity: noticeable change” value in the data set with rats and with beagle dogs was “no noticeable change” throughout.

Take `CNc1ccccc1C[S+]([O-])c1nc2c([nH]1)CCCC2` (stereo not shown) [Example No. 2, 2-(2-methylaminobenzylsulfinyl)-4,5,6,7-tetrahydro-1H-benzimidazole]: the half-maximal inhibitory concentration (IC50) on H^+ +K^+ ATPase [2] was determined as 1800 nM. The inhibition in vivo at 3 mg/kg in data set [1] was 53%.

As for `Cc1cccc(NCC(C)C)c1C[S+]([O-])c1ncc[nH]1` (stereo not shown) [Example No. 45, 2-[(2-isobutylamino-6-methyl)benzylsulfinyl]imidazole], the “Suppresive action … (%)” value in data set [4] (10 mg/kg) came to 86.8%; in data set [4] (30 mg/kg), 90.3%. In data set [1], the inhibition in vivo at 1 mg/kg came to 82%.

As to `CC(C)Nc1ccccc1C[S+]([O-])c1ncc[nH]1` (stereo not shown) [Example No. 23, 2-[(2-isopropylamino)benzylsulfinyl]imidazole], the inhibition in vivo at 3 mg/kg in data set [1] amounted to 66%.
